Test results reported in ChEMBL document CHEMBL1127773, “Inhibition of steroid 5-reductase by inverted, competitive inhibitors” (Bioorg Med Chem Lett, 1994).

What follows are molecules tested against T1, 3-oxo-5-alpha-steroid 4-dehydrogenase 2 (Homo sapiens, UniProt P31213) (assay: Inhibitory activity against human prostatic Steroid 5-alpha-reductase).
T1 sequence (P31213 whole entry): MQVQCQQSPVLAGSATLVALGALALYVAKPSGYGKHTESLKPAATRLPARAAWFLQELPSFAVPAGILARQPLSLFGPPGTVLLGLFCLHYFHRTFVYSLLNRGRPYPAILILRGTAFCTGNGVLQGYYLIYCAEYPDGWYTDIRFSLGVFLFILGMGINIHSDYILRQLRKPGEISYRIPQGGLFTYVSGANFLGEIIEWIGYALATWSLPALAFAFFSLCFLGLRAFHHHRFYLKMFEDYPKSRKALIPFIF

Structure (SMILES)	IC50 [µM]
CC(C)N(C(=O)[C@@H]1C[C@@H]2CCC3C4CCC(=O)N(C)[C@@]4(C)CCC3[C@@]2(C)C1)C(C)C (stereo partly drawn)	> 100
CC(C)N(C(=O)[C@@H]1CC2CCC3C(CC[C@@]4(C)C3CCC(=O)N4C)[C@@]2(C)C1)C(C)C (stereo partly drawn)	40
CN1C(=O)CC[C@@]2(C)C1CC[C@H]1[C@@H]3CC[C@H](O)[C@@]3(C)CC[C@@H]12 (stereo partly drawn)	> 0.43
CN1C(=O)CCC2C3CC=C4C[C@@H](O)CC[C@]4(C)C3CC[C@@]21C (stereo partly drawn)	32

The remaining molecules from weak to strong by IC50, led by results:

IC50 [µM]	Structure (SMILES)
15	CN1C(=O)CCC2C3CC[C@H]4CC(=O)CC[C@]4(C)C3CC[C@@]21C (stereo partly drawn)
12	CN1C(=O)CCC2C3CCC4[C@@H](O)CC[C@]4(C)C3CC[C@@]21C (stereo partly drawn)
4	CN1C(=O)CCC2C3CC[C@H]4C[C@@H](O)CC[C@]4(C)C3CC[C@@]21C (stereo partly drawn)
0.0086	CCN(CC)C(=O)[C@H]1CC[C@H]2[C@@H]3CC[C@H]4N(C)C(=O)CC[C@]4(C)[C@H]3CC[C@]12C
